Article PMC12519464, “Dual-Site Inhibition of SARS-CoV‑2 RNA-Dependent RNA Polymerase by Small Molecules Able to Block Viral Replication Identified through a Computer-Aided Drug Discovery Approach” (ACS Infectious Diseases, 2025)
Read-outs that look alike come from different tables or passages of the source.

Tests used:
[1] = molecular target: SARS-CoV-2 nsp12/7/8 (RTC) complex (Severe acute respiratory syndrome coronavirus 2, UniProt P0DTD1); assay: biochemical; type: biochemical
[2] = Compounds cytotoxicity in the Vero E6 cell line; settings: African green monkey, Vero E6 cells stably expressing GFP, with CP-100356 (P-gp inhibitor), 2 μM
[3] = tested on: SARS-CoV-2 (BetaCov/Belgium/GHB-03021/2020); assay: microbe, parasite or virus in culture; settings: Severe acute respiratory syndrome coronavirus 2, Vero C1008, read-out: EC50: compound concentration required to inhibit SARS-CoV-2 replication by 50%
[4] = tested on: SARS-CoV-2 (BetaCov/Belgium/GHB-03021/2020); assay: in vitro; settings: African green monkey
in vitro = settings: African green monkey
[5] = tested on: SARS-CoV-2 (BetaCov/Belgium/GHB-03021/2020)
SARS-CoV-2 RTC = SARS-CoV-2 RTC (Severe acute respiratory syndrome coronavirus 2, UniProt P0DTD1); type: biochemical; settings: competing against RNA or GTP substrates; Lineweaver-Burk plots
SARS-CoV-2 = settings: cited from earlier work
RNA substrate = assay: Microscale Thermophoresis/Spectral Shift binding assay with RNA substrate (Monolith X); settings: data not shown
SARS-CoV-2 minimal RTC = SARS-CoV-2 minimal RTC (Severe acute respiratory syndrome coronavirus 2, UniProt P0DTD1); type: binding
[6] = primer-extension PAGE assay, 150 nM RTC, 5% DMSO, 30 min preincubation at 37 °C, mean and SD of at least 3 independent experiments
[7] = read-out: IC50: compound concentration required to inhibit by 50% the SARS-CoV-2 RTC enzymatic activity
[8] = 500 µM compound, Microscale Thermophoresis, Fig. S3

Work on CC(=O)O[C@@H]1CC[C@@]2(C)[C@@H](CC[C@]3(C)[C@@H]2C(=O)C=C2[C@@H]4[C@@H](C)[C@H](C)CC[C@]4(C)CC[C@]23C)[C@@]1(C)C(=O)O [AKBA, 3-O-Acetyl-11-Keto-Beta-Boswellic Acid] yielded an IC50 [1] of 4.98 ± 1.44 µM, a CC50 at 24 h [2] greater than 100 µM and an EC50 [3] of 4.81 ± 2.15 µM. It also gave a selectivity ratio [4] greater than 20.8.

In the case of Cc1oc2c(C)c3oc(=O)c(CCC(=O)N4CCC(C(=O)O)(c5ccccc5)CC4)c(C)c3cc2c1-c1ccccc1 [Cmp_4, 4-phenyl-1-[3-(2,5,9-trimethyl-7-oxo-3-phenylfuro[3,2-g]chromen-6-yl)propanoyl]piperidine-4-carboxylic acid], the IC50 [1, 6] is reported as 8.21 ± 4.87 µM, the CC50 at 24 h (in vitro) is reported as greater than 100 µM and the EC50 [3] is reported as 2.61 ± 0.18 µM. It also gave a selectivity ratio [4] greater than 38.4.

In the case of CC(C)C[C@H](NC(=O)OCc1ccccc1)C(=O)N[C@@H](CC1CCNC1=O)C(O)S(=O)(=O)O (some centres unmarked) [GC376], the CC50 (Vero E6 GFP) is reported as greater than 100 µM and the EC50 ([5]; read-out: EC50: compound concentration required to inhibit SARS-CoV-2 replication by 50%) is reported as 0.06 ± 0.03 µM.

For CC(C)C[C@H](NC(=O)OCc1ccccc1)C(=O)N[C@@H](C[C@@H]1CCNC1=O)C(O)S(=O)(=O)[O-].[Na+] (some centres unmarked) [GC376], the “SI: selective index, ratio of CC50/EC50” value [5] was >5,882.

In the case of O=C(O)c1c(Cl)c(Cl)c(Cl)c(Cl)c1-c1c2cc(I)c(=O)c(I)c-2oc2c(I)c(O)c(I)cc12 [Rose bengal], the “mode of inhibition of SARS-CoV-2 RdRp” value (SARS-CoV-2 RTC) is listed as “mixed model of inhibition”, the IC50 [1, 6] is listed as 0.25 ± 0.0036 µM and the EC50 (SARS-CoV-2; ref previous studies (number not given; probably 25, Rubekina et al.), read-out: EC50, inhibition of SARS-CoV-2 replication) is listed as 0.5 µM. The CC50 (in vitro) was greater than 100 µM, the “interaction with RNA substrate” value (RNA substrate) was “no evidence of interaction” and the EC50 [3] was 0.18 ± 0.02 µM. For the same molecule, the selectivity ratio [4] was greater than 546.

In the case of Oc1cccc(-c2c3nc(c(-c4cccc(O)c4)c4ccc([nH]4)c(-c4cccc(O)c4)c4nc(c(-c5cccc(O)c5)c5ccc2[nH]5)CC4)C=C3)c1 [Temoporfin, reference compound], the IC50 [1] is reported as greater than 100 µM.

In the case of O=C(O[C@@H]1Cc2c(O)cc(O)cc2O[C@@H]1c1cc(=O)c(O)c2c(O)c(O)cc([C@H]3Oc4cc(O)cc(O)c4C[C@H]3O)c2c1)c1cc(O)c(O)c(O)c1 [Theaflavin 3-gallate], the IC50 [1, 7] is reported as 19.8 ± 3.49 µM.

C[C@H]1CC[C@]2(NC1)O[C@H]1C[C@H]3[C@@H]4CC[C@H]5C[C@@H](O)CC[C@]5(C)[C@H]4CC[C@]3(C)[C@H]1[C@@H]2C [Tomatidine] showed an IC50 [1] of 51.4 ± 5.58 µM.

C[C@@H]1CC[C@]2(C(=O)O)CC[C@]3(C)C(=CC[C@@H]4[C@@]5(C)C[C@@H](O)[C@H](O)C(C)(C)[C@@H]5CC[C@]43C)[C@@H]2[C@]1(C)O [Tormentic acid] showed an IC50 [1, 7] greater than 100 µM.

With O=C(c1ccccc1Cl)c1cccnc1-c1nnn(Cc2cc(C(F)(F)F)cc(C(F)(F)F)c2)c1-c1ccncc1 [Tradipitant, reference compound] the IC50 [1, 7] was greater than 100 µM.

Cc1cc(Nc2ncnc3ccc(NC4=NC(C)(C)CO4)cc23)ccc1Oc1ccn2ncnc2c1 [Tucatinib, reference compound] gave an IC50 [1, 6] greater than 100 µM.

Molecule CC(C)Oc1ccc(-c2nn([C@@H](C)c3oc4ccc(F)cc4c(=O)c3-c3cccc(F)c3)c3ncnc(N)c23)cc1F [Umbralisib, reference compound] has an IC50 [1] greater than 100 µM.

Work on C[C@H]1[C@H](C)CC[C@]2(C(=O)O)CC[C@]3(C)C(=CC[C@@H]4[C@@]5(C)CC[C@H](O)C(C)(C)[C@@H]5CC[C@]43C)[C@H]12 [Ursolic acid, reference compound] yielded an IC50 [1] greater than 100 µM.

For C[C@H]1[C@H](C)CC[C@]2(C(=O)O)CC[C@]3(C)C(=CC[C@@H]4[C@@]5(C)CCC(=O)C(C)(C)[C@@H]5CC[C@]43C)[C@H]12 [Ursonic acid], the IC50 [1] was 26.5 ± 12.6 µM.

For CC1(C)CCC(CN2CCN(c3ccc(C(=O)NS(=O)(=O)c4ccc(NCC5CCOCC5)c([N+](=O)[O-])c4)c(Oc4cnc5[nH]ccc5c4)c3)CC2)=C(c2ccc(Cl)cc2)C1 [Venetoclax], the response amplitude (SARS-CoV-2 minimal RTC; [8]) was 3.9, the signal-to-noise ratio (SARS-CoV-2 minimal RTC; [8]) was 7.7 and the “binding check to SARS-CoV-2 minimal RTC” value (SARS-CoV-2 minimal RTC; single concentration of 500 μM of compound) was “specific binding”. The “mode of inhibition of SARS-CoV-2 RdRp” value (SARS-CoV-2 RTC) was “noncompetitive mode of inhibition”, the IC50 [1, 6] was 2.37 ± 0.42 µM and the EC50 (SARS-CoV-2; ref number not printed in the text (probably 27, Milani et al.), read-out: EC50, inhibition of SARS-CoV-2 replication in cell culture) was 6 µM. For the same molecule, the CC50 (in vitro) was greater than 100 µM, the EC50 [3] was 0.85 ± 0.08 µM and the selectivity ratio [4] was greater than 118.

CC(C)(C)NC(=O)c1ccc(Oc2cc(F)c(CC(=O)O)cc2Cl)c(NS(=O)(=O)c2ccc(C3CC3)cc2Cl)c1 [Vidupiprant, reference compound] gave an IC50 [1, 6] of 63.5 ± 24.3 µM.

Molecule Cc1ccc(C(=O)NNC(=O)c2c(C)cccc2Cl)cc1C#Cc1cnc2ccccc2c1 [Vodobatinib, reference compound] has an IC50 [1, 6] greater than 100 µM.

For CCOC(=O)N[C@@H]1CC[C@@H]2[C@@H](C1)C[C@H]1C(=O)O[C@H](C)[C@H]1[C@H]2/C=C/c1ccc(-c2cccc(F)c2)cn1 [Vorapaxar, reference compound], the IC50 [1] was greater than 100 µM.

CC1(C)[C@@H](O)CC[C@]2(C)[C@H]3CC=C4[C@@H]5C[C@@]6(C)C[C@H](OC6=O)[C@]5(C)CC[C@@]4(C)[C@]3(C)CC[C@@H]12 [Wilforlide A] gave an IC50 [1, 7] greater than 100 µM.

Work on Dryocrassin ABBA yielded an IC50 [1, 7] of 14.5 ± 5.46 µM.
